According to ChEMBL document CHEMBL4616589, “Exploring structure-promiscuity relationships using dual-site promiscuity cliffs and corresponding single-site analogs” (Bioorg Med Chem, 2020):

Columns and labels:
[1] = target: Vascular endothelial growth factor receptor 1 (Homo sapiens, UniProt P17948); test: Inhibition of VEGFR1 (unknown origin)
[2] = target: Tyrosine-protein kinase ABL1 (Homo sapiens, UniProt P00519); test: Inhibition of ABL1 (unknown origin)
Sequence of Tyrosine-protein kinase ABL1 (P00519 whole entry): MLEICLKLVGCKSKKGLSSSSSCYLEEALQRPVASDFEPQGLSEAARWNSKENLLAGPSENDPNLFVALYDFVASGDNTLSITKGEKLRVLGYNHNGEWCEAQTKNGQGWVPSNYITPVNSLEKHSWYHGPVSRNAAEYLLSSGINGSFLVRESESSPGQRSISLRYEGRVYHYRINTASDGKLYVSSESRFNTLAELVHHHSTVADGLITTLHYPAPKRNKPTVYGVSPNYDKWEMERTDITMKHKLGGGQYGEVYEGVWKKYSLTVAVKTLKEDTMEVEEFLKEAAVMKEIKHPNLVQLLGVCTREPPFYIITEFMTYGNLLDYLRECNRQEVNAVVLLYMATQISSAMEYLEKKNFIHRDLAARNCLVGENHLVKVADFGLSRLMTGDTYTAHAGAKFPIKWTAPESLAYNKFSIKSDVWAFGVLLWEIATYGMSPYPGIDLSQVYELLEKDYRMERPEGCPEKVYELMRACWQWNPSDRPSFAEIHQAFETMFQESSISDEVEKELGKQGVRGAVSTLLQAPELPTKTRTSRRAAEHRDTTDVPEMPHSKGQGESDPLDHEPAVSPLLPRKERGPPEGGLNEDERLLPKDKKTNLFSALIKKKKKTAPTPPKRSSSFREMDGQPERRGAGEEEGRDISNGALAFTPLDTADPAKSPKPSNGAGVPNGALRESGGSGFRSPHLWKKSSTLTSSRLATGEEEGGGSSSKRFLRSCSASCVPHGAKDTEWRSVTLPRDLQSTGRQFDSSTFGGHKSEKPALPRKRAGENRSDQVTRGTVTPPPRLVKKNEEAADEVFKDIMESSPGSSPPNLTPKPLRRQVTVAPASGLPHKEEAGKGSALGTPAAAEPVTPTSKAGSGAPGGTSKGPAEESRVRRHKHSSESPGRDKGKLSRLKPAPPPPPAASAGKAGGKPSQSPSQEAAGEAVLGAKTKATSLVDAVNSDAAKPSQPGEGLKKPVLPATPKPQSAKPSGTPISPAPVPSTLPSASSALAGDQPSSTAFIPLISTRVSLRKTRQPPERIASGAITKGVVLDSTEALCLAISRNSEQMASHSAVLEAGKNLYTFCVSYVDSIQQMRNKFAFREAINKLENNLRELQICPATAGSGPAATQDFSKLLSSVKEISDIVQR

Sequence of Vascular endothelial growth factor receptor 1 (P17948 whole entry): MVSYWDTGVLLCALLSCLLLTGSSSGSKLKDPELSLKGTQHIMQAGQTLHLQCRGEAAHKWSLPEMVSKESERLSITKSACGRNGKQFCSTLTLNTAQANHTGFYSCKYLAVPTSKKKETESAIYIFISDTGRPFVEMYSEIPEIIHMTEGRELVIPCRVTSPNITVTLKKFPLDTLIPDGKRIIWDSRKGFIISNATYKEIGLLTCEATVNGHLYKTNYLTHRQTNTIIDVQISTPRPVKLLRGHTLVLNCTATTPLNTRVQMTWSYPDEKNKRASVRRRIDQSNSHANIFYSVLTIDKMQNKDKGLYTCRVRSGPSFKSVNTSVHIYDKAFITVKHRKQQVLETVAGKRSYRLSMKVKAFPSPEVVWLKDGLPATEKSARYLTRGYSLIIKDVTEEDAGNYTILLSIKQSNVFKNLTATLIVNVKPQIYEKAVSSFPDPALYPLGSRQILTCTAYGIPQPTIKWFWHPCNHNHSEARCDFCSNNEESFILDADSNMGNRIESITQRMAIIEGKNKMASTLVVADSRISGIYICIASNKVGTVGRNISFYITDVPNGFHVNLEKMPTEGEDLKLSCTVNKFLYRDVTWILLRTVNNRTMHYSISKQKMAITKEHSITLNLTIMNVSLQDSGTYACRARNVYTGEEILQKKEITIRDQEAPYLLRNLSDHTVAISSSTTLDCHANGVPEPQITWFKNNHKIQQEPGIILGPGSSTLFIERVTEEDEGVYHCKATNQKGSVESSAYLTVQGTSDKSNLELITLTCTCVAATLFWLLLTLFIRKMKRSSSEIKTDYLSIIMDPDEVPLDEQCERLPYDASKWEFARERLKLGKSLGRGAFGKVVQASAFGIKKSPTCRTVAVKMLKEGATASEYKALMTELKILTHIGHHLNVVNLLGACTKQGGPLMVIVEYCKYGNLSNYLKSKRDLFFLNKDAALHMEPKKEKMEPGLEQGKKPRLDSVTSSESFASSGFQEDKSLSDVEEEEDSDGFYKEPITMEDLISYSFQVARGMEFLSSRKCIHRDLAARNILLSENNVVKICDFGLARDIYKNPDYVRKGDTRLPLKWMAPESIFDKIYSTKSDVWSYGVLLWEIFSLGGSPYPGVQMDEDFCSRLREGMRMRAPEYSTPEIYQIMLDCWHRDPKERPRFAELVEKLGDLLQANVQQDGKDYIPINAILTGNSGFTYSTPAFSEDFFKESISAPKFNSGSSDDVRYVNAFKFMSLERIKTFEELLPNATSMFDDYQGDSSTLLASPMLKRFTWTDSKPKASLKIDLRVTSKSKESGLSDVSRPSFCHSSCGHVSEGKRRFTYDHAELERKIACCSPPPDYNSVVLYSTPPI

| IC50 [1] [nM] | Ki [2] [nM] | Compound |
| --- | --- | --- |
| 1000 | – | ClC(Cn1ncc2c(NCc3ccccc3)ncnc21)c1ccccc1 (configuration not stated) |
| – | 2000 | CCCCNc1ncnc2c1cnn2CC(Cl)c1ccccc1 (configuration not stated) |
